{"source": "patent US12486227B2", "about": "“Small molecules for cancer therapy that reduce the expression of transcription factors KLF5 and EGR-1” (University of Florida Research Foundation, Incorporated, priority 2019, dated 2025)", "key": {"[1]": {"system": "DLD-1, HCT116, HT29, and SW620 cells", "test": "Cell viability (Cell Titer-Glo) of four CRC cell lines", "assay_type": "cell-based, human", "settings": "24 h, FIGS. 2A-C", "method": "SR18662 is potent inhibitor of CRC cell growth in vitro. […]. To examine the impact of these compounds on viability of CRC cell lines, we performed cell proliferation and cell growth assays using DLD-1 and HCT116 CRC cells. […] […]. Cell viability. DLD-1, HCT116, HT29, and SW620 cells were seeded in 96 well plate format and treated with DMSO or with compounds dissolved in DMSO in the range of 0.001 to 20 μM final concertation for 24 h and analyzed with the Cell Titer-Glo luciferase assay system (Promega) using a SpectraMax M3 (Molecular Devices) plate reader. The IC50 values were calculated using GraphPad Prism version 5.00 for Windows (GraphPad Software)."}, "[2]": {"system": "EGR-1", "test": "Western blot of EGR-1 protein levels in DLD-1 cells", "assay_type": "cell-based, human", "settings": "1 μM and 10 μM, 24 h", "method": "We have studied the effects of SR18662 upon lowering KLF5 levels in colon cancer cell lines. […] The levels of the protein EGR-1 are lowered as well. In this experiment the test compounds were at 1 μM and 10 μM, and protein levels were measured after 24 h. […] The study was also repeated using HCT-116 cells rather than DLD-1 cells, with similar results. These compounds appear to dose-dependently reduce levels of KLF5 and EGR-1 proteins.\nWestern blot analysis. Total protein was extracted from cells with Laemmli buffer and the analysis was performed as described previously (24)."}, "[3]": {"system": "DLD-1 colon cancer cells", "test": "MTT viability assay, DLD-1", "assay_type": "cell-based", "settings": "Homo sapiens", "from_the_text": "Specific Examples of compounds of the present disclosure have EC50 values estimated using a cell-based assay for binding to the KLF5 promoter and, in many cases, a follow-up viability assay (MTT) using DLD-1 colon cancer cells, a cell line known to highly express KLF5 and whose growth is adversely affected by the reduction of KLF5 levels. Assay protocols follow those described in the literature.^22,23 Other assays that are not described here but that are standard in the field may also be useful in establishing mechanism of action of these compounds."}, "[4]": {"system": "HT-29 colorectal cancer cell line", "test": "MTT growth assay, HT-29", "assay_type": "cell-based", "settings": "Homo sapiens, Table 1", "from_the_text": "(§1) The observed activity is greater than that previously seen for ML264."}, "[5]": {"system": "DLD-1-derived tumor xenografts", "test": "DLD-1 xenograft tumor growth in nude mice", "assay_type": "in vivo, mouse", "method": "SR18862 inhibits the growth of CRC xenografts in vivo. To evaluate SRI8662 in an in vivo model we used CRC cells for a mouse xenograft study. As described in more detail in the Examples section, nude mice were injected with DLD-1 CRC cells. Tumors were allowed to grow to an approximate size of 100 mm^3, and then mice were injected with vehicle or with varied concentrations of SR18662, given once a day or twice a day for five days, followed by two days without injection, and then followed by five days with injections. The experiment was completed the day after the last injection. […] Significant differences in tumor size are apparent at the end of the treatment schedule (FIG. 6B). To further characterize the impact of SR18662 on the features of isolated tumors, we compared vehicle-treated mice with mice that had been treated with SR18662 twice a day. […] Because SR18662 had induced cell apoptosis and death in the in vitro setting, we stained the xenografts with PanCK and TUNEL to estimate the levels of apoptosis in the in vivo context.\nXenografts. All mice studies were approved by the Stony Brook University Institutional Animal Care and Use Committee (IACUC) and performed in accordance with institutional policies and NIH guidelines. […] Tumor volume was determined by caliper measurement and calculated by the established method (25). […] Mice were monitored and weighed every two days. […]"}, "[6]": {"system": "HCT-116 colorectal cancer cell line", "test": "MTT growth assay, HCT-116", "assay_type": "cell-based", "settings": "Homo sapiens, Table 1", "from_the_text": "as §1"}, "[7]": {"system": "SW-620 colorectal cancer cell line", "test": "MTT growth assay, SW-620", "assay_type": "cell-based", "settings": "Homo sapiens, Table 1", "from_the_text": "as §1"}, "[8]": {"system": "DLD-1, HCT-116, HT-29, and SW-620 colorectal cancer cell lines", "test": "MTT assays for blocking growth of colorectal cancer cell lines (range over four lines)", "assay_type": "cell-based", "settings": "Homo sapiens; DLD-1, HCT-116, HT-29, SW-620", "from_the_text": "as §1"}, "[9]": {"system": "major human CYP450 liver enzymes", "test": "Inhibition of human CYP450 liver enzymes", "assay_type": "in vitro ADME"}, "[10]": {"test": "Oral bioavailability in mice", "assay_type": "in vivo"}, "[11]": {"system": "human KLF5 promoter", "test": "KLF5 promoter activity luciferase assay in DLD-1/pGL4.18hKLF5p cells", "assay_type": "cell-based", "settings": "Homo sapiens, DLD-1", "method": "To examine the impact of these compounds on viability of CRC cell lines, we performed cell proliferation and cell growth assays using DLD-1 and HCT116 CRC cells. […] KLF5 promoter activity assay. DLD-1/pGL4.18hKLF5p cells were seeded in 96 well plate format and treated with DMSO or with test compounds dissolved in DMSO in the range of 0.001 to 20 μM final concentration for 24 h and the human KLF5 promoter activity was determined with the ONE-Glo luciferase assay system (Promega) using a SpectramMax M3 (Molecular Devices) plate reader. The IC50 values were calculated using GraphPad Prism version 5.00 for Windows (GraphPad Software) (22)."}}, "note": "Read-outs that look alike come from different tables or passages of the source.", "data": [{"smiles": "CS(=O)(=O)N1CCN(C(=O)CNC(=O)/C=C/c2ccc(Cl)c(Cl)c2)CC1", "note": "[Example 9, (E)-3-(3,4-dichlorophenyl)-N-(2-(4-(methylsulfonyl)piperazin-1-yl)-2-oxoethyl)acrylamide]", "values": [{"measurement": "cell viability IC50 relative to ML264 and SR15006", "setting": "[1]", "value": "about one log unit lower than those for ML264 and SR15006"}, {"measurement": "EGR-1 protein levels by Western blot", "setting": "[2]", "value": "lowered"}, {"measurement": "EC50", "setting": "[3]; MTT, Table 1, read-out: EC50 (nM) DLD-1", "value": 1.7, "unit": "nM"}, {"measurement": "EC50", "setting": "[3]; Table 2, read-out: Approximate potency (EC50 · mol/L) (DLD1, MTT assay)", "value": 1.68, "unit": "nM"}, {"measurement": "EC50", "setting": "[4]", "value": 40, "unit": "nM"}, {"measurement": "tumor growth vs vehicle-treated mice", "setting": "[5]; i.p., 5-25 mg/kg once or twice a day", "value": "dose-dependent reduction in tumor growth"}, {"measurement": "growth of CRC xenografts", "setting": "[5]; once a day 10 mg/kg", "value": "strong inhibitory effects"}, {"measurement": "EC50", "setting": "[6]", "value": 22, "unit": "nM"}, {"measurement": "EC50", "setting": "[7]", "value": 22, "unit": "nM"}, {"measurement": "EC50", "setting": "[8]", "value": 1.74, "unit": "nM"}, {"measurement": "inhibition of major human CYP450 liver enzymes", "setting": "[9]", "value": "does not inhibit"}, {"measurement": "oral bioavailability", "setting": "[10]", "value": "orally bioavailable"}, {"measurement": "IC50", "setting": "[11]; 24 h treatment, FIG. 1B, read-out: IC50, human KLF5 promoter activity", "value": 4.4, "unit": "nM"}, {"measurement": "IC50", "setting": "[11]; Table 1, comparison of ML264 and SR18662, read-out: luciferase IC50", "value": 4.4, "unit": "nM"}, {"measurement": "EC50", "setting": "[11]; Table 2, read-out: Approximate potency (EC50 · mol/L) (luciferase)", "value": 4.4, "unit": "nM"}]}]}
